Source: patent publication US5340807A, “Tricyclic compounds and intermediates thereof” (priority 1991, dated 1994)

Columns and labels:
male ddy strain mice = experiment: Test for acute toxicity (minimum lethal dose, oral); format: in vivo; settings: mortality observed seven days after administration
Experimental: Groups of 3 male ddy strain mice weighing 20±1 g were used. The test compounds were orally administered. Seven days after administration, the mortality was observed and the minimum lethal dose (MLD) was determined.

[1] = tested on: acyl coenzyme A: cholesterol acyltransferase (ACAT); experiment: Test for ACAT inhibitory activity (microsome fraction prepared from rabbit liver); format: biochemical; settings: 10^-6 M, 37° C., 10 minutes
Experimental: Test for ACAT inhibitory activity The test for ACAT inhibitory activity was performed by a modified method of the method of Brecher et al. Biochim. Biophys. […] The radioactivity of the cholesterol ester spot was determined by a liquid scintillation counter. The radio-activity for each test compound was calculated by the difference between the radioactivity with the microsome fraction and the radioactivity without the microsome fraction. The radioactivity of control was determined in a similar manner without any test compound.

serum cholesterol level = experiment: Inhibition effect on serum cholesterol level in hamster with dietary hyperlipemia; format: in vivo; settings: Golden hamster, 2% cholesterol feed for 3 days; 30 mg/kg orally once a day
Experimental: Inhibition effect on serum cholesterol level in hamster with dietary hyperlipemia
Golden hamster (SLC, male, age of 6 weeks) was made free access to feed containing 2% cholesterol for 3 days. Each test compound was suspended in olive oil and orally administered once a day in a dose of 30 mg/kg during the feeding. (A: Test Group administered with the test compound, B: Control Group administered with olive oil only). In Group C, feed free from cholesterol was fed for 3 days. On the fourth day, blood sample was collected from the descending aorta under pentobarbital anesthesia and cholesterol level in serum was determined. The total cholesterol level in serum of each group was determined and the inhibition rate for the test compound was calculated according to the following equation. [formula]

Compound: CC(C)c1cccc(C(C)C)c1NC(=O)C1c2ccccc2COc2ccc(C(F)(F)F)cc21 (stereo not drawn) [Compound 20, 6,11-Dihydro-N-(2,6-diisopropylphenyl) -2-trifluoromethyldibenz[b,e]oxepin-11-carboxamide]
- Acute Toxicity (MLD), minimum lethal dose (male ddy strain mice): > 300 mg/kg
- Inhibiting rate(%) of ACAT [1]: 84%
- Inhibition Rate (%) of total cholesterol level in serum (serum cholesterol level): 63%

Compound: CC(C)c1cccc(C(C)C)c1NC(=O)C1c2ccccc2CSc2ccc(Br)cc21 (stereo not drawn) [Compound 32, 2-Bromo-6,11-dihydro-N-(2,6-diisopropylphenyl)dibenzo[b,e]-thiepin-11-carboxamide]
- Acute Toxicity (MLD), minimum lethal dose (male ddy strain mice): > 300 mg/kg
- Inhibiting rate(%) of ACAT [1]: 88%
- Inhibition Rate (%) of total cholesterol level in serum (serum cholesterol level): 67%
